From patent US10562895B2, “Pyrroloquinoline quinone B crystal form and preparation method therefor” (ZHUCHENG HAOTIAN PHARM CO., LTD, priority 2015, dated 2020)

Assay: hygroscopicity analysis (DVS)
Assay type: physicochemical
Excerpt: The crystal form B of pyrroloquinoline quinone provided by the present invention is characterized by solid-state methods, such as an X-ray powder diffraction (XRPD), a thermogravimetric analysis (TG), a differential scanning calorimetry analysis (DSC), an infrared (IR) analysis, and a hygroscopicity analysis (DVS). A solid sample of the crystal form B of pyrroloquinoline quinone obtained in Example 1 was subjected to a hygroscopicity analysis.

hygroscopicity (solid sample obtained in Example 1, FIG. 5): low hygroscopicity
Structure (SMILES): O=C(O)c1cc(C(=O)O)c2c(n1)C(=O)C(=O)c1cc(C(=O)O)[nH]c1-2 [4,5-Dihydro-4,5-dioxo-1H-pyrrolo[2,3-f]quinoline-2,7,9-tricarboxylic acid]
water adsorption / solid form change (at a relative humidity of 85-95%, FIG. 5): adsorbed a molecule of water and was converted into a monohydrate compound
